In ChEMBL document CHEMBL1143118, “6-Acetyl-7,7-dimethyl-5,6,7,8-tetrahydropterin is an activator of nitric oxide synthases” (Bioorg Med Chem Lett, 2008):

How the values were obtained:
[1] = target: Nitric oxide synthase 1 (Homo sapiens, UniProt P29475); test: Activity of tetrahydrobiopterin free nNOS
[2] = Effect on nitric oxide production in tetrahydrobiopterin depleted pig pulmonary artery endothelial cells at 30 uM after 72 hrs; assay type: functional, Sus scrofa, Endothelial cell
[3] = test system: Aortic ring; test: Relaxation of phenyphrine-induced constriction in rat aortic rings at 0.3 mM relative to control; assay type: functional, Aorta; design: scale not given: the % may be the effect or the level left
[4] = test system: Aortic ring; test: Relaxation of phenyphrine-induced constriction in rat aortic rings in presence of L-NAME; assay type: functional, Aorta; design: scale not given: the % may be the effect or the level left
[5] = test system: Aortic ring; test: Relaxation of phenyphrine-induced constriction in rat aortic rings; assay type: functional, tissue-based; details: Aorta
[6] = test system: Macrophage; test: Effect on nitric oxide production in tetrahydrobiopterin depleted mouse bone marrow macrophages at 1 uM after 72 hrs; assay type: functional

Chain of Nitric oxide synthase 1 (P29475 whole entry): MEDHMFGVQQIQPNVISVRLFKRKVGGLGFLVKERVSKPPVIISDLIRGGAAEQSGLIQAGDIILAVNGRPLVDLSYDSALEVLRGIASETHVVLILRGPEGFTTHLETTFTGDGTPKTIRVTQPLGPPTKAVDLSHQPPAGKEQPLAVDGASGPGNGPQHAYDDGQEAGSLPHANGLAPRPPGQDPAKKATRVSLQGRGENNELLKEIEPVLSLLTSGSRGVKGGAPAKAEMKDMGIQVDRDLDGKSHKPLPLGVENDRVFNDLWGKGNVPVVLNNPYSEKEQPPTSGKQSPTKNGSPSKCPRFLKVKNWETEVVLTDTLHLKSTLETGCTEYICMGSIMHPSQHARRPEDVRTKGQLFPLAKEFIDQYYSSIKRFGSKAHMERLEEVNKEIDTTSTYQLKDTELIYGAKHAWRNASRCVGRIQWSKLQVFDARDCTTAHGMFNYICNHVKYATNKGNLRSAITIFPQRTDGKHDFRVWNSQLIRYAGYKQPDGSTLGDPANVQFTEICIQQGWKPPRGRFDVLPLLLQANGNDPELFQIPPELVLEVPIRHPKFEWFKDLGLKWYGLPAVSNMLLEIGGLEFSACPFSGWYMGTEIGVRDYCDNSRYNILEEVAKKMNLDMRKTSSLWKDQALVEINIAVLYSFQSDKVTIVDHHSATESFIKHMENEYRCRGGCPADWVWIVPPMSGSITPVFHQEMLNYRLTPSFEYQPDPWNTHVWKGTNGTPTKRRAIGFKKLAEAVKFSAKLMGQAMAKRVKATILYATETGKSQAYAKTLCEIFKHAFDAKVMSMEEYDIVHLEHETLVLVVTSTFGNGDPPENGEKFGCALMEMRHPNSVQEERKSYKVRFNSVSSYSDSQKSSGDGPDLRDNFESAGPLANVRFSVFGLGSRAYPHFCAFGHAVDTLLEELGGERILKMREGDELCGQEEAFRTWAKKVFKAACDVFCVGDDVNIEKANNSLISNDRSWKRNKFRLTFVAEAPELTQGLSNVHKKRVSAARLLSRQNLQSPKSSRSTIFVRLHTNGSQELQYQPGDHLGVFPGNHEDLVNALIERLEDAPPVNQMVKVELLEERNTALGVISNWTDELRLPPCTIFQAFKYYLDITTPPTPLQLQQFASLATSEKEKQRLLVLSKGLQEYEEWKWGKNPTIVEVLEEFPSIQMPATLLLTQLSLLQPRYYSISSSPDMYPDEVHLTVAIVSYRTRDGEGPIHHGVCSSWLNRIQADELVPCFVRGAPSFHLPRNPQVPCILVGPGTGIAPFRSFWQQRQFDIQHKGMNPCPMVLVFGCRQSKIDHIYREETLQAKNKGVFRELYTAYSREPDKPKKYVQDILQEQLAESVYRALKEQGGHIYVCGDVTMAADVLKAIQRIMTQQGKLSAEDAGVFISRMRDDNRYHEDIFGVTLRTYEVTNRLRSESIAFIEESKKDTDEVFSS

Compound	Kd [1] [µM]	Activity [2] [µM]	Activity [3] [%]	Activity [4] [%]	EC50 [5] [µM]	Activity [6] [µM]
C[C@H](O)[C@H](O)[C@H]1CNc2nc(N)[nH]c(=O)c2N1 [SAPROPTERIN]	1.12					
CC(=O)C1=Nc2c(nc(N)[nH]c2=O)NC1(C)C		11.4	24.2	5.4	0.01	6.2
CC(=O)C1Nc2c(nc(N)[nH]c2=O)NC1(C)C (configuration not stated)	151					
